The values below come from US8785457B2 (Cellzome Limited, priority 2009, dated 2014).

Where two headings read alike, the source gives them in different places.

Common to all, as to assay type: binding
In one assay the target is T1, PI3K delta (PI3 Kd) (Homo sapiens, UniProt O00329).
T1 construct: endogenous in cells; host or cells: Jurkat, clone E6-1 (ATCC TIB-152) cell lysate
The assay is described as follows: kinobeads assay, PI3K delta. The following applies: kinobeads assay, read-out: Inhibition values (IC50) PI3Kd. Put shortly:
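Competitive binding in Jurkat cell lysate (5 mg/mL protein) against beads carrying an immobilized phenylmorpholin-chromen ligand, in DP buffer pH 7.4 with NP40, DTT and NaF. Bead-bound kinases were eluted and quantified by antibody dot blot with infrared detection, and IC50 was taken from dose-response curves of a 1:3 dilution series.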

The next assay deals with T2, PI3Kalpha (PI3Ka) (Homo sapiens, UniProt P42336).
T2 construct: endogenous in cells; host or cells: cell lysate
T2 sequence (P42336 whole entry): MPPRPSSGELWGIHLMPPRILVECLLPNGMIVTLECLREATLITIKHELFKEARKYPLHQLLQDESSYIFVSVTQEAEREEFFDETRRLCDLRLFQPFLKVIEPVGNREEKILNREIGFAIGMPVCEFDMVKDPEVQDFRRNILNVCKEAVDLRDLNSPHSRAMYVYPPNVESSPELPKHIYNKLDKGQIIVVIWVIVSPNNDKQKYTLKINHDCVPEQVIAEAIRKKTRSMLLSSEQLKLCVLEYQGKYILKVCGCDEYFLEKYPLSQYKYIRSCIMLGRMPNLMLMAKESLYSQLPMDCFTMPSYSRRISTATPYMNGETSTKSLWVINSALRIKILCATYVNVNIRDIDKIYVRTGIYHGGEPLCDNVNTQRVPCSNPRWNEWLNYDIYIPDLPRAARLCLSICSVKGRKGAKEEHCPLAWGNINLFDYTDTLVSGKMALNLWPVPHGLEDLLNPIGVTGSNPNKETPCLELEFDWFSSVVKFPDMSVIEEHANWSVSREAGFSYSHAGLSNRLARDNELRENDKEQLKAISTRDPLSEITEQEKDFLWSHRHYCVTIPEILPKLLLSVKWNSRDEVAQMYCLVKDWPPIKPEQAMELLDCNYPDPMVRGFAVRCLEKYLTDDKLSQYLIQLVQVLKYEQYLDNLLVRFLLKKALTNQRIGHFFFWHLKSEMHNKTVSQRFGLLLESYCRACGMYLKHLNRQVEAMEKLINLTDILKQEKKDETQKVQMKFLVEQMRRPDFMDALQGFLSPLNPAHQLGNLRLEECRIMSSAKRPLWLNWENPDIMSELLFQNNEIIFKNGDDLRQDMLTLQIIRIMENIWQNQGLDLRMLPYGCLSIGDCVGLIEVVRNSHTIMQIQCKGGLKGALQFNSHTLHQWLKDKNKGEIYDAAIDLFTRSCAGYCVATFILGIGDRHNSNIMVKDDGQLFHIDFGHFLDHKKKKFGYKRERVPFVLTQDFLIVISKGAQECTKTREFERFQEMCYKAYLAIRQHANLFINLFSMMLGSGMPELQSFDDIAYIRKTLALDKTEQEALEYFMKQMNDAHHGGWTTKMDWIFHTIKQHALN
T2 sequence (P27986 whole entry partner): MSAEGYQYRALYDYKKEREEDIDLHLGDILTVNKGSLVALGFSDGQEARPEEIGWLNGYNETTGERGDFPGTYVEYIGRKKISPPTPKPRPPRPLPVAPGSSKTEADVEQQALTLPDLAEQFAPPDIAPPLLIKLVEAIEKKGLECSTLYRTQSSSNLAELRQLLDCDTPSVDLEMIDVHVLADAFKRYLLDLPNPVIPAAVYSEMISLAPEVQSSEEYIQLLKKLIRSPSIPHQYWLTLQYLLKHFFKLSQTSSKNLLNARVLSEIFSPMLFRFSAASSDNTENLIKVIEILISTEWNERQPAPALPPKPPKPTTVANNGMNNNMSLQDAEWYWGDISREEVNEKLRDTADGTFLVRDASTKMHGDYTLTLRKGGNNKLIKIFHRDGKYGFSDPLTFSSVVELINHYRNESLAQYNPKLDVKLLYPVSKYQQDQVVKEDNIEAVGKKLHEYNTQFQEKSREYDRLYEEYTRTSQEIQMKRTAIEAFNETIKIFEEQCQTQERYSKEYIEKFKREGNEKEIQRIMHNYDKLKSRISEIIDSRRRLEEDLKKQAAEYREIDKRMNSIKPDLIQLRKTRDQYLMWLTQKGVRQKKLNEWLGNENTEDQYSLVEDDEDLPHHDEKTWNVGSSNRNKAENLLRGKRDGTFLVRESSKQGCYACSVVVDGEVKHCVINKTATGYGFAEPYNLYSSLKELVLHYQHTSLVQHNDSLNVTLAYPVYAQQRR
The assay is described as follows: kinobeads assay, PI3Kalpha. The following applies: kinobeads assay, Table 6; for IC50: read-out: Inhibition values (IC50) PI3Ka. Put shortly:
(§1)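 IC50 values derive from per-kinase dose-response curves in a lysate-based competition binding format. Kinases retained on phenylmorpholin-chromen beads in the presence of compound were eluted and detected by multiplexed immunodetection.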

A further assay deals with T3, PI3 Kbeta (PI3 Kb) (Homo sapiens, UniProt P42338).
T3 construct: endogenous in cells; host or cells: cell lysate
T3 sequence (P42338 whole entry): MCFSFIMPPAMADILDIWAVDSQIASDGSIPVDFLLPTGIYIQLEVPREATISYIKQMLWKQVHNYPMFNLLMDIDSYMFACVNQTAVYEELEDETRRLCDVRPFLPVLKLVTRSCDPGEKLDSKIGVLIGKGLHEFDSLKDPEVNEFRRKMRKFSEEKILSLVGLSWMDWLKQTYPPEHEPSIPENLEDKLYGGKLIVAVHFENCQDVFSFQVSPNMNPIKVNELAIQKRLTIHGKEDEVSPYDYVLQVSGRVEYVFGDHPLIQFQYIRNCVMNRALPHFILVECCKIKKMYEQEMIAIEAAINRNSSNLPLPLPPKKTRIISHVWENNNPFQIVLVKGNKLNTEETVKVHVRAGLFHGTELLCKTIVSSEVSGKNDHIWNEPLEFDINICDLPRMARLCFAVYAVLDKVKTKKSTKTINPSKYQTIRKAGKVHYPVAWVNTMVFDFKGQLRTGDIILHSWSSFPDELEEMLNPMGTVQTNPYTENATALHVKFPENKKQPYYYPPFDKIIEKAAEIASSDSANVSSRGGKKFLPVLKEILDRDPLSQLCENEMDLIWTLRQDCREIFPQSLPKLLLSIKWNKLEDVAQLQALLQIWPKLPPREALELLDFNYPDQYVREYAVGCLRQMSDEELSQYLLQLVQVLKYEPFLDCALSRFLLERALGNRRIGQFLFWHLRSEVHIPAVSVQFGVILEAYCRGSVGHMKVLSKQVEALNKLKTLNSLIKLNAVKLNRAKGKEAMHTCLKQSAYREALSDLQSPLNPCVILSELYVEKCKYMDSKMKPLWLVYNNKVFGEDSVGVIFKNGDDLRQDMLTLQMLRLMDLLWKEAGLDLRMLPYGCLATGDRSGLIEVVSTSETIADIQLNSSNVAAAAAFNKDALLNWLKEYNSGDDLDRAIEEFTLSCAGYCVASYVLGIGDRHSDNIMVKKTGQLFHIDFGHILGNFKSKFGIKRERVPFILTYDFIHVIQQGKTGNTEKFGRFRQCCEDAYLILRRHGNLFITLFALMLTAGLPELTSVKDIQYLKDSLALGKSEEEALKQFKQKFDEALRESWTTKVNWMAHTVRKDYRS
T3 sequence (P27986 whole entry partner): as the sequence (P27986 whole entry partner) above
The assay is described as follows: kinobeads assay, PI3Kbeta. The following applies: kinobeads assay, Table 6; read-out: Inhibition values (IC50) PI3Kb. An outline of the steps:
as §1

The target of the next assay is T4, PI3 Kgamma (PI3 Kg) (Homo sapiens, UniProt P48736).
T4 construct: endogenous in cells; host or cells: cell lysate
T4 sequence (P48736 whole entry): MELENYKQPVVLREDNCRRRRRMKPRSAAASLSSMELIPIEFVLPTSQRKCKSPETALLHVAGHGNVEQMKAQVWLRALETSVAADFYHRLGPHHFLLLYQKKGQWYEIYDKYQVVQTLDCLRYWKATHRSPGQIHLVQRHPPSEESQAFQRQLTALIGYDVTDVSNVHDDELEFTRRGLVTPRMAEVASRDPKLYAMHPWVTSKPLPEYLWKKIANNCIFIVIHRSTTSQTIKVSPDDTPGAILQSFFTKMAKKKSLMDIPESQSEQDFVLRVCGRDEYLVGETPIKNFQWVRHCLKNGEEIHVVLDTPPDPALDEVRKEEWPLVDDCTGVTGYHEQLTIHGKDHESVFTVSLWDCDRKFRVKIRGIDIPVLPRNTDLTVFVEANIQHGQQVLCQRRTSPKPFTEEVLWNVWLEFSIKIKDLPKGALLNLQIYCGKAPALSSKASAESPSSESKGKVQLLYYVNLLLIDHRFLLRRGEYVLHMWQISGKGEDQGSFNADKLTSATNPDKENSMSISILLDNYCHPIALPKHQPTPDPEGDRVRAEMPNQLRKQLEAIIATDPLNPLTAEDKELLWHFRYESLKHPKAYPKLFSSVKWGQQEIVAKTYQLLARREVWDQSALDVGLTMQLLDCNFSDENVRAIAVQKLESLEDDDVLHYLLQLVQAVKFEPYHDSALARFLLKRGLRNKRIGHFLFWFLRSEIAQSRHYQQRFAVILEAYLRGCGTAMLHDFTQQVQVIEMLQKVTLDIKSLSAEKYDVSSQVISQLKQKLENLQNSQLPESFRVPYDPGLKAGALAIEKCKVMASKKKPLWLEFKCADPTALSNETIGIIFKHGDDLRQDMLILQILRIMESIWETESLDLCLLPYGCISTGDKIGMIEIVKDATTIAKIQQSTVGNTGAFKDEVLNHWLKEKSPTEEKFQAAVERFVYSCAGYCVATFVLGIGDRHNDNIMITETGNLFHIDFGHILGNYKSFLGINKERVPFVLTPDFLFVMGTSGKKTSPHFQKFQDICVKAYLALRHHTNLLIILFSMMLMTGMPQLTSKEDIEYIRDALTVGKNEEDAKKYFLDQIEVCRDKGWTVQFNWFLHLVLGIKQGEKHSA
In words: kinobeads assay, PI3Kgamma. The conditions noted are these: kinobeads assay, Table 6; read-out: Inhibition values (IC50) PI3Kg. An outline of the steps: as §1

T1 sequence (O00329 whole entry): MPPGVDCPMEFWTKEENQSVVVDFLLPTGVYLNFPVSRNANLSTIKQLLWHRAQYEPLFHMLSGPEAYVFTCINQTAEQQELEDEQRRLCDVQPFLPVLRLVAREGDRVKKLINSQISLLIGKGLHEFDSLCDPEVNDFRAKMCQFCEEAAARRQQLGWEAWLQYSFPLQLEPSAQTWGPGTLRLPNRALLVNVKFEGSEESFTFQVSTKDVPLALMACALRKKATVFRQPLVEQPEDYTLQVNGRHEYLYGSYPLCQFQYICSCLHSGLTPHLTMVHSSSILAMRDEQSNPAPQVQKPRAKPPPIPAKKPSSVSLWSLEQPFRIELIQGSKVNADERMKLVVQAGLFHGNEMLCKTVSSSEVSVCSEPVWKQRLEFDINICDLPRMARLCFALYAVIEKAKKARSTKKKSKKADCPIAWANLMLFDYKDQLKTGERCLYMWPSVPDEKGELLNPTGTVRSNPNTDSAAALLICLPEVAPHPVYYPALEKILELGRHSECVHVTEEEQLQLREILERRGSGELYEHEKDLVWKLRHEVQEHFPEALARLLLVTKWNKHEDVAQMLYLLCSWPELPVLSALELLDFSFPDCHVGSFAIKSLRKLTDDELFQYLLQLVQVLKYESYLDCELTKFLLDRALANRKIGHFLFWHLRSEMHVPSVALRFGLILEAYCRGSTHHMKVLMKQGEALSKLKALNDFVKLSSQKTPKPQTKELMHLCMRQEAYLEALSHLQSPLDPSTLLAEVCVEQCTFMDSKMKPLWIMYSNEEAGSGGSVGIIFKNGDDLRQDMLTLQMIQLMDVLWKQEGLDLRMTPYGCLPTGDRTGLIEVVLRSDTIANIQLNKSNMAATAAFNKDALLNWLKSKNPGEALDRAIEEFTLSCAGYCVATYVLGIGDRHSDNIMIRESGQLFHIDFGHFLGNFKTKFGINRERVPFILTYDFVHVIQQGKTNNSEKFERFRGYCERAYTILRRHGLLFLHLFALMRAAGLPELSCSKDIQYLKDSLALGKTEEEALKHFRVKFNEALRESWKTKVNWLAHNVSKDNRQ
T1 sequence (P27986 whole entry partner): as the sequence (P27986 whole entry partner) above

As a reminder, the IC50 is the point on the concentration scale where inhibition reaches its midpoint. With `CCNC(=O)Nc1ccc(-c2nc3c(c(N4CCOC[C@@H]4C)n2)CCN(C(=O)OC)C3)cc1` [Example 81, (S)-methyl 2-(4-(3-ethylureido)phenyl)-4-(3-methylmorpholino)-5,6-dihydropyrido[3,4-d]pyrimidine-7(8H)-carboxylate], the IC50 on PI3K delta (PI3 Kd) (Table 6), on PI3 Kbeta (PI3 Kb) and on PI3 Kgamma (PI3 Kg) was greater than 10 µM throughout. Also, the “Inhibition values (IC50) PI3Ka” value on PI3Kalpha (PI3Ka) is listed as “D (D >10 μM)”.

With `CCNC(=O)Nc1ccc(-c2nc3c(c(N4CCOC[C@@H]4C)n2)CN(C(=O)OCC)C3)cc1F` [Example 103, (S)-ethyl-2-(4-(3-ethylureido)-3-fluorophenyl)-4-(3-methylmorpholino)-5H-pyrrolo[3,4-d]pyrimidine-6(7H)-carboxylate], the half-maximal inhibitory concentration (IC50) on PI3K delta (PI3 Kd) (Table 6), on PI3 Kbeta (PI3 Kb) and on PI3 Kgamma (PI3 Kg) was greater than 10 µM in each case. Besides, the “Inhibition values (IC50) PI3Ka” value at PI3Kalpha (PI3Ka) is recorded as “D (D >10 μM)”.

Regarding `CCNC(=O)Nc1ccc(-c2nc3c(c(N4CCOC[C@@H]4C)n2)CN(C(=O)OC)C3)cc1` [Example 89, (S)-methyl 2-(4-(3-ethylureido)phenyl)-4-(3-methylmorpholino)-5H-pyrrolo[3,4-d]pyrimidine-6(7H)-carboxylate], the IC50 on PI3K delta (PI3 Kd) (Table 6), at PI3 Kbeta (PI3 Kb) and at PI3 Kgamma (PI3 Kg) was greater than 10 µM throughout. Besides, the “Inhibition values (IC50) PI3Ka” value at PI3Kalpha (PI3Ka) was “D (D >10 μM)”.

Take `CCOC(=O)N1Cc2nc(-c3ccc(NC(=O)NCCO)c(F)c3)nc(N3CCOC[C@@H]3C)c2C1` [Example 104, (S)-ethyl-2-(3-fluoro-4-(3-(2-hydroxyethyl)ureido)phenyl)-4-(3-methylmorpholino)-5H-pyrrolo[3,4-d]pyrimidine-6(7H)-carboxylate]: the half-maximal inhibitory concentration (IC50) on PI3K delta (PI3 Kd) (Table 6), at PI3 Kbeta (PI3 Kb) and on PI3 Kgamma (PI3 Kg) was greater than 10 µM throughout. Besides, the “Inhibition values (IC50) PI3Ka” value on PI3Kalpha (PI3Ka) is reported as “D (D >10 μM)”.

Consider `CCNC(=O)Nc1ccc(-c2nc3c(c(N4CCOC[C@@H]4C)n2)CN(C(=O)OCC)C3)c(F)c1` [Example 113, (S)-ethyl-2-(4-(3-ethylureido)-2-fluorophenyl)-4-(3-methylmorpholino)-5H-pyrrolo[3,4-d]pyrimidine-6(7H)-carboxylate], for which the concentration for half-maximal inhibition (IC50) on PI3K delta (PI3 Kd) (Table 6), on PI3 Kbeta (PI3 Kb) and on PI3 Kgamma (PI3 Kg) was greater than 10 µM in each case. Further, the “Inhibition values (IC50) PI3Ka” value at PI3Kalpha (PI3Ka) is on record as “D (D >10 μM)”.

For the compound `CC(=O)N1CCc2c(nc(-c3ccc(NC(=O)NC4CC4)cc3)nc2N2CCOC[C@@H]2C)C1` [Example 62, (S)-1-(4-(7-acetyl-4-(3-methylmorpholino)-5,6,7,8-tetrahydropyrido[3,4-d]pyrimidin-2-yl)phenyl)-3-cyclopropylurea], the half-maximal inhibitory concentration (IC50) at PI3K delta (PI3 Kd) (Table 4), on PI3K delta (PI3 Kd) (Table 6), at PI3 Kbeta (PI3 Kb) and on PI3 Kgamma (PI3 Kg) was greater than 10 µM in each case. Moreover, the “Inhibition values (IC50) PI3Ka” value on PI3Kalpha (PI3Ka) was “D (D >10 μM)”.

As to `CCNC(=O)Nc1ccc(-c2nc3c(c(N4CCOCC4)n2)CCN(C(=O)C(C)(C)C)C3)cc1` [Example 98, 1-ethyl-3-(4-(4-morpholino-7-pivaloyl-5,6,7,8-tetrahydropyrido[3,4-d]pyrimidin-2-yl)phenyl)urea], the concentration for half-maximal inhibition (IC50) on PI3K delta (PI3 Kd) (Table 6) is greater than 10 µM; at PI3Kalpha (PI3Ka) it was 1 to 10 µM; on PI3 Kbeta (PI3 Kb) it was greater than 10 µM; on PI3 Kgamma (PI3 Kg), greater than 10 µM.

For the compound `CCNC(=O)Nc1ccc(-c2nc3c(c(N4CCOC[C@@H]4C)n2)CCN(C)C3)c(F)c1` [Example 110, (S)-1-ethyl-3-(3-fluoro-4-(7-methyl-4-(3-methylmorpholino)-5,6,7,8-tetrahydropyrido[3,4-d]pyrimidin-2-yl)phenyl)urea], the IC50 on PI3K delta (PI3 Kd) (Table 6), on PI3 Kbeta (PI3 Kb) and on PI3 Kgamma (PI3 Kg) was greater than 10 µM in each case. For the same compound, the “Inhibition values (IC50) PI3Ka” value on PI3Kalpha (PI3Ka) was “D (D >10 μM)”.

In the case of `CCOC(=O)N1Cc2nc(-c3ccc(NC(=O)NCCF)cc3)nc(N3CCOC[C@@H]3C)c2C1` [Example 120, (S)-ethyl 2-(4-(3-(2-fluoroethyl)ureido)phenyl)-4-(3-methylmorpholino)-5H-pyrrolo[3,4-d]pyrimidine-6(7H)-carboxylate], the IC50 on PI3K delta (PI3 Kd) (Table 6), at PI3 Kbeta (PI3 Kb) and on PI3 Kgamma (PI3 Kg) was greater than 10 µM throughout. For the same compound, the “Inhibition values (IC50) PI3Ka” value at PI3Kalpha (PI3Ka) is listed as “D (D >10 μM)”.

With `CC(C)CN1Cc2nc(-c3ccc(NC(=O)NC4CC4)cc3)nc(N3CCOC[C@@H]3C)c2C1` [Example 65, (S)-1-cyclopropyl-3-(4-(6-isobutyl-4-(3-methylmorpholino)-6,7-dihydro-5H-pyrrolo[3,4-d]pyrimidin-2-yl)phenyl)urea], the half-maximal inhibitory concentration (IC50) at PI3K delta (PI3 Kd) (Table 6), at PI3 Kbeta (PI3 Kb) and at PI3 Kgamma (PI3 Kg) was greater than 10 µM in each case. Also, the “Inhibition values (IC50) PI3Ka” value at PI3Kalpha (PI3Ka) is reported as “D (D >10 μM)”.

As to `CCNC(=O)Nc1ccc(-c2nc3c(c(N4CCOCC4)n2)CCN(C(=O)OCC)C3)cc1` [Example 96, ethyl 2-(4-(3-ethylureido)phenyl)-4-morpholino-5,6-dihydropyrido[3,4-d]pyrimidine-7(8H)-carboxylate], the IC50 on PI3K delta (PI3 Kd) (Table 6), at PI3 Kbeta (PI3 Kb) and on PI3 Kgamma (PI3 Kg) was greater than 10 µM in each case. Besides, the “Inhibition values (IC50) PI3Ka” value at PI3Kalpha (PI3Ka) was “D (D >10 μM)”.

On to `CCOC(=O)N1CCc2c(nc(-c3ccc(NC(=O)NC4CC4)cc3)nc2N2CCOC[C@@H]2C)C1` [Example 78, (S)-ethyl 2-(4-(3-cyclopropylureido)phenyl)-4-(3-methylmorpholino)-5,6-dihydropyrido[3,4-d]pyrimidine-7(8H)-carboxylate], for which the half-maximal inhibitory concentration (IC50) at PI3K delta (PI3 Kd) (Table 6), at PI3 Kbeta (PI3 Kb) and on PI3 Kgamma (PI3 Kg) was greater than 10 µM in each case. Further, the “Inhibition values (IC50) PI3Ka” value on PI3Kalpha (PI3Ka) is recorded as “D (D >10 μM)”.

Regarding `CCNC(=O)Nc1ccc(-c2nc3c(c(N4CCOCC4)n2)CN(C(=O)C(C)(C)C)C3)cc1` [Example 100, 1-ethyl-3-(4-(4-morpholino-6-pivaloyl-6,7-dihydro-5H-pyrrolo[3,4-d]pyrimidin-2-yl)phenyl)urea], the concentration for half-maximal inhibition (IC50) on PI3K delta (PI3 Kd) (Table 6) was greater than 10 µM; on PI3Kalpha (PI3Ka), 1 to 10 µM; on PI3 Kbeta (PI3 Kb), greater than 10 µM; on PI3 Kgamma (PI3 Kg) it was greater than 10 µM.

On to `CCNC(=O)Nc1ccc(-c2nc3c(c(N4CCOC[C@@H]4C)n2)CN(C2CCN(C(=O)OC)CC2)C3)cc1F` [Example 122, (S)-methyl 4-(2-(4-(3-ethylureido)-3-fluorophenyl)-4-(3-methylmorpholino)-5H-pyrrolo[3,4-d]pyrimidin-6(7H)-yl)piperidine-1-carboxylate], for which the IC50 on PI3K delta (PI3 Kd) (Table 6), at PI3 Kbeta (PI3 Kb) and at PI3 Kgamma (PI3 Kg) was greater than 10 µM each time. The “Inhibition values (IC50) PI3Ka” value on PI3Kalpha (PI3Ka) is reported as “D (D >10 μM)”.

On to `C[C@H]1COCCN1c1nc(-c2ccc(NC(=O)Nc3cccc(O)n3)cc2)nc2c1CN(C)C2` [Example 80, (S)-1-(6-hydroxypyridin-2-yl)-3-(4-(6-methyl-4-(3-methylmorpholino)-6,7-dihydro-5H-pyrrolo[3,4-d]pyrimidin-2-yl)phenyl)urea], for which the IC50 is greater than 10 µM on PI3K delta (PI3 Kd) (Table 6), 1 to 10 µM on PI3Kalpha (PI3Ka), 1 to 10 µM at PI3 Kbeta (PI3 Kb) and 1 to 10 µM on PI3 Kgamma (PI3 Kg).

Take `CCNC(=O)Nc1ccc(-c2nc3c(c(N4CCOCC4)n2)CCN(C(=O)NCC)C3)cc1` [Example 94, N-ethyl-2-(4-(3-ethylureido)phenyl)-4-morpholino-5,6-dihydropyrido[3,4-d]pyrimidine-7(8H)-carboxamide]: the IC50 was greater than 10 µM at PI3K delta (PI3 Kd) (Table 6), 1 to 10 µM at PI3Kalpha (PI3Ka), greater than 10 µM at PI3 Kbeta (PI3 Kb) and greater than 10 µM at PI3 Kgamma (PI3 Kg).
